Measured values: patent US8816090B2, “Benzisoxazole derivatives” (Pfizer Inc., priority 2005, dated 2014)

How the values were obtained:
Human 5-HT4(d) = target: T1, Human 5-HT4(d) (Homo sapiens, UniProt Q13639); assay: Agonist-induced cAMP elevation in human 5-HT4(d) transfected HEK293 cells; assay type: cell-based; details: for Emax: HEK293, cAMP production normalized to the amount produced by 1,000 nM serotonin; for EC50: cAMP elevation (HTRF), human 5-HT4(d) transfected HEK293 cells
T1 construct: expressed in transfected cells
Description: Human 5-HT4(d) transfected HEK293 cells were established in-house. The cells were grown at 37° C. and 5% CO2 in DMEM supplemented with 10% FCS, 20 mM HEPES (pH 7.4), 200 μg/ml hygromycin B (Gibco), 100 units/ml penicillin and 100 μg/ml streptomycin.
The cells were grown to 60-80% confluence. On the previous day before treatment with compounds dialyzed FCS (Gibco) was substituted for normal and the cells were incubated overnight.
Compounds were prepared in 96-well plates (12.5 μl/well). The cells were harvested with PBS/1 mM EDTA, centrifuged and washed with PBS. At the beginning of the assay, cell pellet was resuspended in DMEM supplemented with 20 mM HEPES, 10 μM pargyline (Sigma) and 1 mM 3-isobutyl-1-methylxanthine (Sigma) at the concentration of 1.6×10^5 cells/ml and left for 15 min at room temperature. The reaction was initiated by addition of the cells into plates (12.5 μl/well). After incubation for 15 min at room temperature, 1% Triton X-100 was added to stop the reaction (25 μl/well) and the plates were left for 30 minutes at room temperature. Homogenous time-resolved fluorescence-based cAMP (Schering) detection was made according to the manufacturer's instruction. ARVOsx multilabel counter (Wallac) was used to measure HTRF (excitation 320 nm, emission 665 nm/620 nm, delay time 50 μs, window time 400 μs).
Data was analyzed based on the ratio of fluorescence intensity of each well at 620 nm and 665 nm followed by cAMP quantification using cAMP standard curve. Enhancement of cAMP production elicited by each compound was normalized to the amount of cAMP produced by 1,000 nM serotonin (Sigma).

T1 sequence (Q13639 1-360 isoform Q13639-3): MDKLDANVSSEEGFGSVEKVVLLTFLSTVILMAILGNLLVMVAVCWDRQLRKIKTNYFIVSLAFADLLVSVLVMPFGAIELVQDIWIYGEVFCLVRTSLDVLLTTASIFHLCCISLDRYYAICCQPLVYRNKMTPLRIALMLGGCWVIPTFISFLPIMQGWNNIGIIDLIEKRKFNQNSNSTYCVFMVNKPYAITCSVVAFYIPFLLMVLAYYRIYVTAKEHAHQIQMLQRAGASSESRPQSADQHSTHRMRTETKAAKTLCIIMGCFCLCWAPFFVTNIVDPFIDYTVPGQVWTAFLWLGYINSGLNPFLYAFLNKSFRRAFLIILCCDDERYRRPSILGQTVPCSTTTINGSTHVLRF

Row | Compound | melting point [°C] | Emax (Human 5-HT4(d)) [%] | EC50 (Human 5-HT4(d)) [nM]
1 | O=C(O)C1(CN2CCC(CCOc3noc4cccc(OCC(F)(F)F)c34)CC2)CCOCC1 [Example 7, 4-{[4-(2-{[4-(2,2,2-Trifluoroethoxy)-1,2-benzisoxazol-3-yl]oxy}ethyl)piperidin-1-yl]methyl}tetrahydro-2H-pyran-4-carboxylic acid] | 176.6 | 35 | 48
2 | CC(C)COc1cccc2onc(OCC3CCN(CC4(C(=O)O)CCCC4)CC3)c12 [Example 9, 1-[(4-{[(4-Isobutoxy-1,2-benzisoxazol-3-yl)oxy]methyl}piperidin-1-yl)methyl]cyclopentane-carboxylic acid] | 156.3 | 36 | 2.9
3 | CC(C)COc1cccc2onc(OCC3CCN(CC4(C(=O)O)CCOCC4)CC3)c12 [Example 10, 4-[(4-{[(4-Isobutoxy-1,2-benzisoxazol-3-yl)oxy]methyl}piperidin-1-yl)methyl]tetrahydro-2H-pyran-4-carboxylic acid] | 153.4 | 45 | 3.1
4 | CC(C)COc1cccc2onc(OCC3CCN(CC(C)(C)C(=O)O)CC3)c12 [Example 11, 3-(4-{[(4-Isobutoxy-1,2-benzisoxazol-3-yl)oxy]methyl}piperidin-1-yl)-2,2-dimethylpropanoic acid] | 123.7 | 29 | 1.4
5 | CC(C)COc1cccc2onc(OCC3CCN(CC4(C(=O)O)CCC4)CC3)c12 [Example 12, 1-[(4-{[(4-Isobutoxy-1,2-benzisoxazol-3-yl)oxy]methyl}piperidin-1-yl)methyl]cyclobutanecarboxylic acid] | 168.8 | 45 | 2.3
6 | CC(C)COc1cccc2onc(OCC3CCN(CCC4(C(=O)O)CCOCC4)CC3)c12 [Example 13, 4-[2-(4-{[(4-Isobutoxy-1,2-benzisoxazol-3-yl)oxy]methyl}piperidin-1-yl)ethyl]tetrahydro-2H-pyran-4-carboxylic acid] | 213.8 | 54 | 2.7
7 | CC(C)COc1cccc2onc(OCC3CCN(C[C@H]4CC[C@H](C(=O)O)CC4)CC3)c12 [Example 14, trans-4-[(4-{[(4-Isobutoxy-1,2-benzisoxazol-3-yl)oxy]methyl}piperidin-1-yl)methyl]cyclohexane-carboxylic acid] | 103.3 | 41 | 2
8 | CC(C)COc1cccc2onc(OCCC3CCN(CC4(C(=O)O)CCOCC4)CC3)c12 [Example 15, 4-[(4-{2-[(4-isobutoxy-1,2-benzisoxazol-3-yl)oxy]ethyl}piperidin-1-yl)methyl]tetrahydro-2H-pyran-4-carboxylic acid] | 117.8 | 32 | 39
9 | CC(C)COc1cccc2onc(NCC3CCN(CC4(C(=O)O)CCOCC4)CC3)c12 [Example 16, 4-[(4-{[(4-Isobutoxy-1,2-benzisoxazol-3-yl)amino]methyl}piperidin-1-yl)methyl]tetrahydro-2H-pyran-4-carboxylic acid] | 178.2 | 55 | 1.6
10 | O=C(O)C1(CN2CCC(COc3noc4cccc(OCC5CCC5)c34)CC2)CCCC1 [Example 17, 1-{[4-({[4-(Cyclobutylmethoxy)-1,2-benzisoxazol-3-yl]oxy}methyl)piperidin-1-yl]methyl}cyclo-pentanecarboxylic acid] | 173.8 | 41 | 3.6

Now from value to compound:

Row | melting point [°C] | Emax (Human 5-HT4(d)) [%] | EC50 (Human 5-HT4(d)) [nM] | Compound
11 | 175.5 | 52 | 2 | O=C(O)C1(CN2CCC(COc3noc4cccc(OCC5CCC5)c34)CC2)CCOCC1 [Example 18, 4-{[4-({[4-(Cyclobutylmethoxy)-1,2-benzisoxazol-3-yl]oxy}methyl)piperidin-1-yl]methyl}tetrahydro-2H-pyran-4-carboxylic acid]
12 | 139.8 | 45 | 0.16 | CC(C)(CN1CCC(COc2noc3cccc(OCC4CCC4)c23)CC1)C(=O)O [Example 19, 3-[4-({[4-(Cyclobutylmethoxy)-1,2-benzisoxazol-3-yl]oxy}methyl)piperidin-1-yl]-2,2-dimethyl-propanoic acid]
13 | 176.9 | 50 | 0.24 | O=C(O)C1(CN2CCC(COc3noc4cccc(OCC5CCC5)c34)CC2)CCC1 [Example 20, 1-{[4-({[4-(Cyclobutylmethoxy)-1,2-benzisoxazol-3-yl]oxy}methyl)piperidin-1-yl]methyl}cyclo-butanecarboxylic acid]
14 | 223.2 | 61 | 5.3 | O=C(O)C1(CCN2CCC(COc3noc4cccc(OCC5CCC5)c34)CC2)CCOCC1 [Example 21, 4-{2-[4-({[4-(cyclobutylmethoxy)-1,2-benzisoxazol-3-yl]oxy}methyl)piperidin-1-yl]ethyl}tetrahydro-2H-pyran-4-carboxylic acid]
15 | 185.6 | 73 | 4.4 | O=C(O)C1(CN2CCC(COc3noc4cccc(OCC5CCCC5)c34)CC2)CCOCC1 [Example 22, 4-{[4-({[4-(Cyclopentylmethoxy)-1,2-benzisoxazol-3-yl]oxy}methyl)piperidin-1-yl]methyl}tetrahydro-2H-pyran-4-carboxylic acid]
16 | 212.5 | 77 | 22 | O=C(O)C1(CCN2CCC(COc3noc4cccc(OCC5CCCC5)c34)CC2)CCOCC1 [Example 23, 4-{2-[4-({[4-(Cyclopentylmethoxy)-1,2-benzisoxazol-3-yl]oxy}methyl)piperidin-1-yl]ethyl}tetrahydro-2H-pyran-4-carboxylic acid]
17 | 177.7 | 52 | 1.4 | O=C(O)C1(CN2CCC(COc3noc4cccc(OC5CCCC5)c34)CC2)CCOCC1 [Example 24, 4-{[4-({[4-(Cyclopentyloxy)-1,2-benzisoxazol-3-yl]oxy}methyl)piperidin-1-yl]methyl}tetrahydro-2H-pyran-4-carboxylic acid]
18 | 172.9 | 78 | 6.6 | O=C(O)C1(CN2CCC(COc3noc4cccc(OC5CCOCC5)c34)CC2)CCCC1 [Example 28, 1-{[4-({[4-(Tetrahydro-2H-pyran-4-yloxy)-1,2-benzisoxazol-3-yl]oxy}methyl)piperidin-1-yl]methyl}-cyclopentanecarboxylic acid]
19 | 154.6 | 70 | 11 | O=C(O)[C@H]1CC[C@H](CN2CCC(COc3noc4cccc(OC5CCOCC5)c34)CC2)CC1 [Example 29, trans-4-{[4-({[4-(Tetrahydro-2H-pyran-4-yloxy)-1,2-benzisoxazol-3-yl]oxy}methyl)piperidin-1-yl]methyl}cyclohexanecarboxylic acid]
20 | 157.1 | 88 | 19 | O=C(O)C1(CN2CCC(COc3noc4cccc(OC5CCOCC5)c34)CC2)CCCCC1 [Example 30, 1-{[4-({[4-(Tetrahydro-2H-pyran-4-yloxy)-1,2-benzisoxazol-3-yl]oxy}methyl)piperidin-1-yl]methyl}-cyclohexanecarboxylic acid]
21 | 136.5 | 31 | 27 | OC1(COc2cccc3onc(OCC4CCN(CC5(O)CCOCC5)CC4)c23)CCCC1 [Example 31, 4-({4-[{(4-[(1-Hydroxycyclopentyl)methoxy]-1,2-benzisoxazol-3-yl}oxy)methyl]piperidin-1-yl}-methyl)tetrahydro-2H-pyran-4-ol]
22 | 133.1 | 40 | 0.84 | O=C1CCCC1Oc1cccc2onc(OCC3CCN(CC4(O)CCOCC4)CC3)c12 (stereo not drawn) [Example 38, 2-{[3-({1-[(4-Hydroxytetrahydro-2H-pyran-4-yl)methyl]piperidin-4-yl}methoxy)-1,2-benzisoxazol-4-yl]oxy}cyclopentanone]
23 | 182.7 | 55 | 2.4 | O=C(O)[C@H]1CC[C@H](CN2CCC(COc3noc4cccc(O[C@H]5CC[C@@H](O)CC5)c34)CC2)CC1 [Example 44, trans-4-({4-[({4-[(cis-4-Hydroxycyclohexyl)oxy]-1,2-benzisoxazol-3-yl}oxy)methyl]piperidin-1-yl}-methyl)cyclohexanecarboxylic acid]
24 | 189.6 | 42 | 3.8 | O=C(O)C1(CN2CCC(COc3noc4cccc(O[C@H]5CC[C@@H](O)CC5)c34)CC2)CCCC1 [Example 45, 1-({4-[({4-[(cis-4-Hydroxycyclohexyl)oxy]-1,2-benzisoxazol-3-yl}oxy)methyl]piperidin-1-yl}methyl)-cyclopentanecarboxylic acid]
